Test results published in patent US6838580B2, “Opioid derivative” (Teikoku Seiyaku Co., Ltd., priority 2002, dated 2005).
“Also recorded” adds a separate entry of the source. Marks after values point to notes of the source that are not given here.

Columns and labels:
[1] = target: T1, δ-opioid receptor (Rattus norvegicus, UniProt P33533); assay: Competitive receptor binding assay, synaptic membrane fraction, [3H]DPDPE; details: rat brain synaptic membrane, read-out: Affinity of receptor (Ki, nM) δ
T1 construct: synaptic membrane fraction obtained from the rat brain tissue; from tissue; host or cells: Sprague-Dawley rat brain without cerebellum, synaptic membrane (P2) fraction
Method: Regarding the opioid peptide derivatives synthesized in Examples and Reference Examples, the μ- and δ-opioid receptor affinities were obtained by a competitive receptor assay using the synaptic membrane fraction obtained from the rat brain tissue according to the known methods. That is, Sprague-Dawley rats having an average weight of 150-180 g were killed by decapitation, the brain tissue from which cerebellum had been removed was homogenized in 0.32M sucrose and 1 mM HEPES (pH 7.5) containing 50 μg/ml soybean trypsin inhibitor, fractionated and centrifuged to obtain the synaptic membrane fraction (P2 fraction), which was pre-incubated in 50 mM HEPES (pH 7.5) containing 100 mM NaCl, 0.1 mM GDP and soybean trypsin inhibitor to remove endogenous ligands from the P2 fraction.
A competitive receptor binding assay (Radiolabeled receptor assay: RRA) based on an exchange reaction between a radioactive ligand for the synaptic membrane fraction and a peptide derivative to be tested was performed by using tritium-labeled [^3H]DAGO which is a μ-opioid receptor agonist and tritium-labeled [^3H]DPDPE which has the high δ-opioid receptor selectivity, and incubating an aliquot of the synaptic membrane with the peptide derivative to be tested for a period of time. Upon this, an exchange reaction between a ligand was performed under constant conditions, the radiation remaining in the synaptic membrane fraction was measured, and an amount of the ligand adsorbed onto the synaptic membrane fraction is calculated. By assuming that binding with a receptor occurs in competition between a radioactive ligand and an end ligand, the concentration (IC50) at which the maximum specific binding of the radioactive ligand is 50% inhibited was obtained, from which the affinity constant (Ki) was calculated by a method of Cheng et al. (Biochem. Pharmcol., 22, 3099(1973)).

[2] = tested on: SD Male rats; assay: Analgesic effect, Randoll-Seritto hind limb pressure method, intracerebroventricular administration; assay type: in vivo; details: rat, i.c.v.
From the text: (§1) SD Male rats, weighing 110 to 130 g, were used. One group consisted of five rats. The analgesic effects were examined by a Randoll-Seritto method. […] The threshold was expressed in mm Hg. During the measurement, the upper limit of the pressure applied to a hind limb was 100 mm Hg in order to avoid damage of the tissues.
1) When performing intracerebroventricular administration (i.c.v.), a rat was fixed to a brain stereotactic fixing apparatus under slight ether anesthesia, the skin at a head was dissected, and an administration cannula was inserted into a place at a transverse of […] from a bregma position and a depth of 3.5 to 4.0 mm. The administration volume was 10 μl/animal. Observation of the analgesic action was performed before administration, and at 30 minutes, and 1, 2, 3, 4 and 5 hours after administration. Doses of both compounds were 0.1, 1 and 10 μg/animal. Separately, a group to which 5 mg/kg of naltrexone hydrochloride was administered subcutaneously immediately after compound of Ex.1 10 μg/animal i.c.v and a group to which 5 mg/kg of naltrexone hydrochloride was administered subcutaneously immediately after compound of Ex.4 10 μg/animal i.c.v. was made. In addition, as morphine hydrochloride at a dose of 3 μg/animal i.c.v. group was used as a positive control group and a physiological saline 10 μl/animal i.c.v. group as a control group was made, respectively.
(§2) In order to perform a significant difference test between respective administration groups and control groups, and between values at respective times before administration and after administration, a Dunnet multiple comparative test method was used. In the statistical processing for performing a significant difference test between morphine hydrochloride administration groups and control groups, Student t-test was used. For performing a significant difference test between values at respective times before administration and after administration in morphine hydrochloride administration groups, a Dunnet multiple comparative test method was used. A significant level was at 5 or lower % risk rate (two-tailed test).

[3] = tested on: SD Male rats; assay: Analgesic effect, Randoll-Seritto hind limb pressure method, subcutaneous administration; assay type: in vivo; details: rat, s.c.
Method: as §1
2) When administered intravenously (i.v.), a volume of 2 ml/kg weight was administered to a tail vein and, when administered subcutaneously (s.c.), a volume of 2 ml/kg weight was subcutaneously administered to the back. In the case of intravenous administration, a 1 mg/kg, 3 mg/kg or 10 mg/kg compound of Ex.1 administration group, a 1 mg/kg, 3 mg/kg or 10 mg/kg compound of Ex.4 administration group, a 2 ml/kg physiological saline administration group and a 5 mg/kg morphine hydrochloride administration group were made, respectively. In the case of subcutaneous administration, a 10 mg/kg, 30 mg/kg or 100 mg/kg compound of Ex.1 administration group, a 10 mg/kg, 30 mg/kg or 100 mg/kg compound of Ex.4 administration group, a 2 ml/kg physiological saline administration group and a 5 mg/kg morphine hydrochloride administration group were made, respectively. Observation of the analgesic action was performed 15 minutes, 30 minutes, 1 hour and 2 hours after administration in the case of intravenous administration, 30 minutes, 1 hour, 2 hours and 3 hours after administration in the case of subcutaneous administration, respectively.
as §2

[4] = target: T2, δ-opioid receptor (Mus musculus, UniProt P32300); assay: Mouse seminiferous tract (MVD) assay, inhibition of electrically stimulated constriction; assay type: cell-based; details: agonist activity, read-out: MVD (IC50 ± S.E.)
T2 construct: using mouse seminiferous tract in place of guinea pig ileum; from tissue; host or cells: mouse seminiferous tract (vas deferens, MVD), organ bath
T2 sequence (P32300 whole entry): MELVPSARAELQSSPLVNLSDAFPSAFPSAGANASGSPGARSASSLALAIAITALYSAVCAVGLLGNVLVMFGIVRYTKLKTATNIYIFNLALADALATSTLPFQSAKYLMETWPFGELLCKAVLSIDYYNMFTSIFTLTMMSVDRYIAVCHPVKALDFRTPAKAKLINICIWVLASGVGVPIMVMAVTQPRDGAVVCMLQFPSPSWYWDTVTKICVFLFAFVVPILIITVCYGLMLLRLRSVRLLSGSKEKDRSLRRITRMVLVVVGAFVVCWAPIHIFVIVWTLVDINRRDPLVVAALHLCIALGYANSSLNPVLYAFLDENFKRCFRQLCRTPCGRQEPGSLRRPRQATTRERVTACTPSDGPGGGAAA

T1 sequence (P33533 whole entry): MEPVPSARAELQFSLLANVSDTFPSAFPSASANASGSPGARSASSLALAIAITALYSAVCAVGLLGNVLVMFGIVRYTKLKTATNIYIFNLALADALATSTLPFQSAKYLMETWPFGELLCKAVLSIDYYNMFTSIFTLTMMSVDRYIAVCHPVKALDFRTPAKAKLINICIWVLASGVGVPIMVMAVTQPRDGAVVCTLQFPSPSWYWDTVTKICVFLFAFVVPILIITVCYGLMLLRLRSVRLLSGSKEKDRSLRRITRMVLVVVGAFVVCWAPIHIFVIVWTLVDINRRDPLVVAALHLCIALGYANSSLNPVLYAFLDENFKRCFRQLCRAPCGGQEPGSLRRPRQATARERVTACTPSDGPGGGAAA

Cc1cc(O)cc(C)c1C[C@H](N)C(=O)NCCCCCCNC(=O)[C@@H](N)Cc1c(C)cc(O)cc1C [Ex.4, 1,6-Bis(Dmt-amino)hexane.2HCl]
Ki [1]: 46.1 ± 8.8 nM
Threshold (mmHg) ([2]; 0.1 μg/animal, 0.5 hr): 47 ± 2 mmHg
Threshold (mmHg) ([2]; 0.1 μg/animal, 1 hr): 47 ± 1 mmHg
Threshold (mmHg) ([2]; 0.1 μg/animal, 2 hr): 50 ± 2 mmHg
Threshold (mmHg) ([2]; 0.1 μg/animal, 3 hr): 49 ± 2 mmHg
Threshold (mmHg) ([2]; 0.1 μg/animal, 4 hr): 49 ± 2 mmHg
Threshold (mmHg) ([2]; 0.1 μg/animal, 5 hr): 47 ± 1 mmHg
Threshold (mmHg) ([2]; 0.1 μg/animal, before administration): 45 ± 2 mmHg
Change in escape reaction threshold / analgesic effect, in words ([2]; 1 μg/animal): significant increase in the threshold was seen 4 hours and 5 hours after administration
Threshold (mmHg) ([2]; 1 μg/animal, 0.5 hr): 51 ± 2 mmHg
Threshold (mmHg) ([2]; 1 μg/animal, 1 hr): 51 ± 2 mmHg
Threshold (mmHg) ([2]; 1 μg/animal, 2 hr): 51 ± 3 mmHg
Threshold (mmHg) ([2]; 1 μg/animal, 3 hr): 50 ± 2 mmHg
Threshold (mmHg) ([2]; 1 μg/animal, 4 hr): 53 ± 2*^,$ mmHg
Threshold (mmHg) ([2]; 1 μg/animal, 5 hr): 52 ± 1*^,$ mmHg
Threshold (mmHg) ([2]; 1 μg/animal, before administration): 46 ± 1 mmHg
Change in escape reaction threshold / analgesic effect, in words ([2]; 10 μg/animal): significant change in the threshold was not seen at any time after administration
Threshold (mmHg) ([2]; 10 μg/animal + Naltrexon 5 mg/kg s.c., 0.5 hr): 55 ± 2*^,$ mmHg
Threshold (mmHg) ([2]; 10 μg/animal + Naltrexon 5 mg/kg s.c., 1 hr): 52 ± 2*^,$ mmHg
Threshold (mmHg) ([2]; 10 μg/animal + Naltrexon 5 mg/kg s.c., 2 hr): 51 ± 2 mmHg
Threshold (mmHg) ([2]; 10 μg/animal + Naltrexon 5 mg/kg s.c., 3 hr): 51 ± 1 mmHg
Threshold (mmHg) ([2]; 10 μg/animal + Naltrexon 5 mg/kg s.c., 4 hr): 52 ± 1*^,$ mmHg
Threshold (mmHg) ([2]; 10 μg/animal + Naltrexon 5 mg/kg s.c., 5 hr): 50 ± 1 mmHg
Threshold (mmHg) ([2]; 10 μg/animal + Naltrexon 5 mg/kg s.c., before administration): 46 ± 1 mmHg
Change in escape reaction threshold / analgesic effect, in words ([2]; 10 μg/animal followed by naltrexone 5 mg/kg s.c.): significant increase in the threshold was seen 30 minutes, 1 hour and 4 hours after administration
Threshold (mmHg) ([2]; 10 μg/animal, 0.5 hr): 50 ± 2 mmHg
Threshold (mmHg) ([2]; 10 μg/animal, 1 hr): 47 ± 0 mmHg
Threshold (mmHg) ([2]; 10 μg/animal, 2 hr): 49 ± 2 mmHg
Threshold (mmHg) ([2]; 10 μg/animal, 3 hr): 48 ± 2 mmHg
Threshold (mmHg) ([2]; 10 μg/animal, 4 hr): 48 ± 2 mmHg
Threshold (mmHg) ([2]; 10 μg/animal, 5 hr): 49 ± 1 mmHg
Threshold (mmHg) ([2]; 10 μg/animal, before administration): 46 ± 1 mmHg
Analgesic effect compared with compound of Ex.1, in words [3]: weaker and has a shorter duration time than in compound of Ex.1
Change in escape reaction threshold / analgesic effect, in words ([3]; 10 mg/kg): tendency of a slight increase in the threshold was seen
Threshold (mmHg) ([3]; 10 mg/kg, 0.5 hr): 58 ± 3 mmHg
Threshold (mmHg) ([3]; 10 mg/kg, 1 hr): 58 ± 5 mmHg
Threshold (mmHg) ([3]; 10 mg/kg, 2 hr): 55 ± 5 mmHg
Threshold (mmHg) ([3]; 10 mg/kg, 3 hr): 53 ± 1 mmHg
Threshold (mmHg) ([3]; 10 mg/kg, before administration): 47 ± 2 mmHg
Change in escape reaction threshold / analgesic effect, in words ([3]; 30 mg/kg): significant increase was seen 2 hours after administration; also recorded: exhibited the significant analgesic effect 2 hours after administration
Threshold (mmHg) ([3]; 30 mg/kg, 0.5 hr): 59 ± 3 mmHg
Threshold (mmHg) ([3]; 30 mg/kg, 1 hr): 56 ± 3 mmHg
Threshold (mmHg) ([3]; 30 mg/kg, 2 hr): 65 ± 5^$$ mmHg
Threshold (mmHg) ([3]; 30 mg/kg, 3 hr): 59 ± 4 mmHg
Threshold (mmHg) ([3]; 30 mg/kg, before administration): 47 ± 2 mmHg
Change in escape reaction threshold / analgesic effect, in words ([3]; 100 mg/kg): significant difference was seen in the measured values 30 minutes, 1 hour and 2 hours after administration; also recorded: significant analgesic effect was exhibited from 30 minutes after administration
Threshold (mmHg) ([3]; 100 mg/kg, 0.5 hr): 69 ± 6**^,$$ mmHg
Threshold (mmHg) ([3]; 100 mg/kg, 1 hr): 68 ± 3*^,$ mmHg
Threshold (mmHg) ([3]; 100 mg/kg, 2 hr): 75 ± 8**^,$$ mmHg
Threshold (mmHg) ([3]; 100 mg/kg, 3 hr): 58 ± 2 mmHg
Threshold (mmHg) ([3]; 100 mg/kg, before administration): 48 ± 2 mmHg
IC50 [4]: > 10000 nM
